Key:
[1] = Dye penetration from polyurethane coating on silicone sheets into calf liver tissue; type: in vitro ADME; conditions: 1% dye in TPU matrix on silicone rubber sheet placed against calf liver for 24 or 48 hours
Experimental: Mitoxantrone, and ciprofloxacin were likewise tested.
Dyes and drugs were first coated onto silicone rubber sheets as droplets, and dried at 70° C. overnight. To gain a first approximation of the ability of the dyes to penetrate tissue, the sheets were placed against the outer membrane of calf liver, either for 24 or 48 hours. The tissue was placed on top of the sheet and supplied with nothing more that the pressure of the tissue against the sheet.

[2] = Dye penetration from coated stents into excised human prostate tissue; conditions: dye bands on stent in excised prostate, 37° C., after 48 hours
Source text: As to materials, acidic, basic or lipophilic dyes, with molecular weights in the range of 3-400, were used, including: crystal violet (MW 408); basic Nile blue (MW 300); Nile red lipophilic; oil red O lipophilic; erythrosin (MW 890) acidic; and, methylene blue (MW 319) acidic. Mitoxantrone, and ciprofloxacin were likewise tested. The dyes and agents were mixed in a thermoplastic polyurethane (TPU) matrix comprising of 30/70 weight ratio of Carbothane® 72D, an aliphatic, polycarbonate based TPU, to Tecophil®, a hydrophilic, aliphatic, polyether-based TPU (Noveon, Inc.) in a 50/50 mixture of DMAC and THF. The polymers were prepared, 5% by weight, with dyes or agents added to the mixture as an additional 1% by weight.
Human prostate tissue was obtain postmortem, and within 24 hours thereof, and flash froze. The tissue was thereafter thawed at ambient temperature, and used within 12 hours. The tissue was not fixed.
Six dyes, namely, methylene blue, crystal violet, a combination of Nile blue and Nile red, oil red O, and erythrosin were coated onto two stents in the form of 3 mm bands or rings. One stent was coated with both mitoxantrone, and ciprofloxacin. Thereafter, the stents were placed in a phosphate buffered Ringer's solution with 1% virocide into excised prostates for 24 and 48 hours at 37° C. […]

Row | SMILES | penetration / staining of liver tissue [1] | staining of prostatic tissue [2]
1 | CCN(CC)c1ccc2nc3c4ccccc4c(=O)cc-3oc2c1 [Nile red] | only mildly stained the tissue | –
2 | CN(C)c1ccc(C(=C2C=CC(=[N+](C)C)C=C2)c2ccc(N(C)C)cc2)cc1 [crystal violet] | penetrated the tissue to the greatest extent | –
3 | O.O=C([O-])c1ccccc1-c1c2cc(I)c(=O)c(I)c-2oc2c(I)c([O-])c(I)cc12.[Na+].[Na+] [erythrosin] | – | approximately equivalent
4 | Cc1ccc(C)c(N=Nc2cc(C)c(N=Nc3c(O)ccc4ccccc34)cc2C)c1 [oil red O] | only mildly stained the tissue | staining the least
